The values that follow are results of earlier work, collected in patent publication US20110305778A1, “Chemically Stabilized Anti-Dandruff Compositions For Use In Personal Care Compositions” (priority 2010, published 2011).

The conditions of this data set: value in parenthesis after each coordinating compound; no method given.

As for `O=C(O)CN(CC(=O)O)CC(=O)O` [NTA], the “Log Zn Binding Constant” value is 10.7. Regarding `O=C(O)CCCCC(=O)O` [Adipic Acid], the “Log Zn Binding Constant” value was 2.6. With `Cl` [Chloride], the “Log Zn Binding Constant” value is reported as −0.3. Turning to `O=C(O)CN(CCN(CC(=O)O)CC(=O)O)CC(=O)O` [EDTA], the “Log Zn Binding Constant” value is reported as 16.5. As to `N[C@@H](CSSC[C@H](N)C(=O)O)C(=O)O` [Cystine], the “Log Zn Binding Constant” value was 6.7. On to `N[C@@H](CCC(=O)O)C(=O)O` [Glutamic Acid], for which the “Log Zn Binding Constant” value is 4.5.

Take `O=C(O)C(O)C(=O)O` [Tatronic Acid]: the “Log Zn Binding Constant” value is reported as 3.2. Take `O=C(O)CC(O)(CC(=O)O)C(=O)O` [Citric Acid]: the “Log Zn Binding Constant” value is 4.8. Consider `O=C(O)CC(O)C(=O)O` (stereo not shown) [Malic Acid], for which the “Log Zn Binding Constant” value was 2.9.

For `OB(O)O` [Boric Acid], the “Log Zn Binding Constant” value is 0.9. On to `CC(O)C(=O)O` (stereo not shown) [Lactic Acid], for which the “Log Zn Binding Constant” value is listed as 1.9. On to `O=C(O)CNCCNCC(=O)O` [EDDA], for which the “Log Zn Binding Constant” value is 11.1.

Turning to `NCC(=O)O` [Glycine], the “Log Zn Binding Constant” value is reported as 5.0. In the case of `O=C(O)c1ccccc1C(=O)O` [Phthalic Acid], the “Log Zn Binding Constant” value is recorded as 2.2. `N[C@@H](CS)C(=O)O` [Cysteine]: the “Log Zn Binding Constant” value is recorded as 9.1. Take `Cc1cc(C2(c3cc(C)c(O)c(CN(CC(=O)O)CC(=O)O)c3)OS(=O)(=O)c3ccccc32)cc(CN(CC(=O)O)CC(=O)O)c1O` [Xylenol Orange]: the “Log Zn Binding Constant” value is 10.3. On to `CC(=O)O` [Acetic Acid], for which the “Log Zn Binding Constant” value is given as 1.0. In the case of `O=C(O)CCC(=O)O` [Succinic Acid], the “Log Zn Binding Constant” value is recorded as 1.8. Regarding `N=C(N)NCCC[C@H](N)C(=O)O` [Arginine], the “Log Zn Binding Constant” value is listed as 4.2. Consider `O=S(=O)(O)O` [Sulfuric Acid], for which the “Log Zn Binding Constant” value is recorded as 0.9. As for `O=CO` [Formic Acid], the “Log Zn Binding Constant” value is 0.6. Consider `O=P(O)(O)O` [Phosphoric Acid], for which the “Log Zn Binding Constant” value is on record as 2.4. `O=C(O)CO` [Glycolic Acid]: the “Log Zn Binding Constant” value was 2.0.

Take `CSCC[C@H](N)C(=O)O` [Methionine]: the “Log Zn Binding Constant” value is 4.4. Consider `O=C(O)CC(=O)O` [Malonic Acid], for which the “Log Zn Binding Constant” value is on record as 2.9. For the compound `O=C(O)O` [Carbonic Acid], the “Log Zn Binding Constant” value is 3.9. Turning to `O=C(O)C[C@H](NCCN[C@@H](CC(=O)O)C(=O)O)C(=O)O` [EDDS], the “Log Zn Binding Constant” value is listed as 13.5. Consider `N[C@@H](CC(=O)O)C(=O)O` [Aspartic Acid], for which the “Log Zn Binding Constant” value is 5.9.
